System: patients
Assay: randomised placebo-controlled double-blind study of deramciclane
Type: in vivo
Conditions: for number of patients with decreased libido: placebo 2 out of 51, p=0.04, Chi-square-test
Method: The effects of deramciclane were studied in a randomised placebo-controlled double-blind study. The subjects were randomly assigned to four parallel groups to receive one tablet twice daily (b.i.d) of a placebo, 5 mg (=10 mg/day), 15 mg (=30 mg/day), or 30 mg (=60 mg/day) deramciclane.
When analyzing the number of patients with decreased libido, 2 out of 51 patients on placebo experienced it, but none of the patients treated with deramciclane 15 mg b.i.d. (n=53) or 30 mg b.i.d.(n=54) experienced decreased libido (p=0.04, Chi-square-test). In addition, when the Udvalg for Kliniske Undersogelser (UKU) scale was used, 21% of 53 patients experienced orgastic dysfunction at the baseline but only 12% of them after 8-week treatment with deramciclane 15 mg b.i.d.

Structure (SMILES): CN(C)CCO[C@]1(c2ccccc2)C[C@H]2CC[C@]1(C)C2(C)C [deramciclane, (1R,2S,4R)-(−)-2-phenyl 2-(dimethylaminoethoxy)-1,7,7-trimethyl-bicyclo[2.2.1]heptane]
- patients experiencing orgastic dysfunction (UKU scale) (after 8-week treatment with deramciclane 15 mg b.i.d., baseline 21% of 53 patients): 12%
- number of patients with decreased libido (deramciclane 15 mg b.i.d. (=30 mg/day), n=53): none
- number of patients with decreased libido (deramciclane 30 mg b.i.d. (=60 mg/day), n=54): none
